Test results: US9174992B2, “Heterobicyclic compounds” (Amgen Inc., priority 2012, dated 2015)

These compounds were tested against PDE10A (UniProt Q9Y233) (assay: PDE10 enzyme inhibition, IMAP TR-FRET assay (Example A, MPDE10A7 Enzyme Activity and Inhibition)). Details: approximate IC50 value, Table 10.
Type: biochemical
Outline: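 Compounds were preincubated 60 min at room temperature with PDE10A enzyme or tissue homogenate, then fluorescein-labeled cAMP or cGMP was added for 90 min. After stopping with IMAP binding reagents, TR-FRET was read and IC50s were fitted with a four-parameter logistic equation.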

IC50 [nM]	SMILES
0.978	CC1(C)C(=O)N([C@H]2C[C@@H](Nc3nc4ccccc4s3)C2)c2nccnc21 [Example 215, 5-(cis-3-(benzo[d]thiazol-2-ylamino)cyclobutyl)-7,7-dimethyl-5H-pyrrolo[2,3-b]pyrazin-6(7H)-one]
157	Cc1ccc(N[C@H]2C[C@@H](N3C(=O)C(C)(C)c4nccnc43)C2)nc1 [Example 139, 7,7-dimethyl-5-(cis-3-((5-methylpyridin-2-yl)amino)cyclobutyl)-5H-pyrrolo[2,3-b]pyrazin-6(7H)-one]
0.669	O=c1n(C2CC2)c2cccnc2n1[C@H]1C[C@H](Nc2nc3ccc(F)cc3s2)C1 [Example 186, 1-cyclopropyl-3-(trans-3-((6-fluorobenzo[d]thiazol-2-yl)amino)cyclobutyl)-1H-imidazo[4,5-b]pyridin-2(3H)-one]
51.1	CC1(C)C(=O)N([C@H]2C[C@H](Nc3ccc(F)cn3)C2)c2nccnc21 [Example 76, 5-(trans-3-((5-fluoropyridin-2-yl)amino)cyclobutyl)-7,7-dimethyl-5H-pyrrolo[2,3-b]pyrazin-6(7H)-one]
0.131	O=c1n(C2CCCC2)c2cccnc2n1[C@H]1C[C@H](Nc2nc3ccccc3s2)C1 [Example 89, 3-(trans-3-(benzo[d]thiazol-2-ylamino)cyclobutyl)-1-cyclopentyl-1H-imidazo[4,5-b]pyridin-2(3H)-one]
30.4	CC1(C)C(=O)N([C@H]2C[C@H](Nc3ncc(Cl)cn3)C2)c2ncccc21 [Example 61, 1-(trans-3-((5-chloropyrimidin-2-yl)amino)cyclobutyl)-3,3-dimethyl-1H-pyrrolo[2,3-b]pyridin-2(3H)-one]
10.8	COc1ccc2nc(N[C@H]3C[C@H](n4c(=O)n(C5CC5)c5nccnc54)C3)sc2c1 [Example 225, 1-cyclopropyl-3-(trans-3-((6-methoxy-1,3-benzothiazol-2-yl)amino)cyclobutyl)-1,3-dihydro-2H-imidazo[4,5-b]pyrazin-2-one]
2.73	COc1cnc(N[C@H]2C[C@H](N3C(=O)C(C)(C)c4nccnc43)C2)cn1 [Example 159, 5-(trans-3-((5-methoxypyrazin-2-yl)amino)cyclobulyl)-7,7-dimethyl-5H-pyrrolo[2,3-b]pyrazin-6(7 H)-one]
1.99	CC1(C)C(=O)N(C2CCN(c3nc4ccccc4s3)CC2)c2ncccc21 [Example 189, 1-(1-(benzo[d]thiazol-2-yl)piperidin-4-yl)-3,3-dimethyl-1H-pyrrolo[2,3-b]pyridin-2(3 H)-one]
1410	Cc1ccc(N[C@H]2CC[C@@H](N3C(=O)C(C)(C)c4nccnc43)CC2)nc1 [Example 218, 7,7-dimethyl-5-(cis-4-((5-methylpyridin-2-yl)amino)cyclohexyl)-5H-pyrrolo[2,3-b]pyrazin-6(7H)-one]
0.944	c1ccc2nc(N[C@H]3C[C@H](n4c(C5CC5)nc5cccnc54)C3)ccc2c1 [Example 6, N-(Trans-3-(2-cyclopropyl-3h-imidazo[4,5-b]pyridin-3-yl)cyclobutyl)quinolin-2-amine]
13	COc1ccnc(N[C@H]2C[C@H](N3C(=O)C(C)(C)c4cccnc43)C2)n1 [Example 58, 1-(trans-3-((4-methoxypyrimidin-2-yl)amino)cyclobutyl)-3,3-dimethyl-1H-pyrrolo[2,3-b]pyridin-2(3H)-one]
38.3	CC1(C)C(=O)N([C@H]2C[C@@H](NC(=O)c3nc4ccccc4[nH]3)C2)c2nccnc21 [Example 217, N-(cis-3-(7,7-dimethyl-6-oxo-6,7-dihydro-5H-pyrrolo[2,3-b]pyrazin-5-yl)cyclobutyl)-1H-benzo[d]imidazolE-2-carboxamide]
0.878	Cn1c(=O)n([C@H]2C[C@H](Nc3nc4ccccc4s3)C2)c2ncncc21 [Example 93, 9-(trans-3-(benzo[d]thiazol-2-ylamino)cyclobutyl)-7-methyl-7H-purin-8(9H)-one]
0.906	CC1(C)C(=O)N([C@H]2C[C@H](Nc3ccc4ncccc4n3)C2)c2ncncc21 [Example 150, 7-(trans-3-((1,5-naphthyridin-2-yl)amino)cyclobutyl)-5,5-dimethyl-5H-pyrrolo[2,3-d]pyrimidin-6(7H)-one]
5.53	c1cnc2nc(N[C@H]3C[C@H](n4c(C5CC5)nc5cccnc54)C3)ccc2c1 [Example 11]
3.46	Cc1cnc(N[C@H]2C[C@H](N3C(=O)C(C)(C)c4cccnc43)C2)nc1 [Example 48, 1-(trans-3-((5-methylpyrimidin-2-yl)amino)cyclobutyl)-3,3-dimethyl-1H-pyrrolo[2,3-b]pyridin-2(3H)-one]
0.622	c1cnc2ccc(N[C@H]3C[C@H](n4c(C5CC5)nc5cccnc54)C3)nc2c1 [Example 3, N-(Trans-3-(2-cyclopropyl-3h-imidazo[4,5-b]pyridin-3-yl)cyclobutyl)-1,5-naphthyridin-2-amine]
7.75	O=c1n(C2CC2)c2nccnc2n1[C@H]1C[C@H](Nc2nc3ccc(F)cc3o2)C1 [Example 176, 1-cyclopropyl-3-(trans-3-((6-fluorobenzo[d]oxazol-2-yl)amino)cyclobutyl)-1H-imidazo[4,5-b]pyrazin-2(3 H)-one]

IC50 [nM]	SMILES
0.388	O=c1n(C2CC2)c2nccnc2n1[C@H]1C[C@H](Nc2nc3ccccc3s2)C1 [Example 90, 1-(trans-3-(benzo[d]thiazol-2-ylamino)cyclobutyl)-3-cyclopropyl-1H-imidazo[4,5-b]pyrazin-2(3H)-one]
10.1	O=c1n(C2CC2)c2nccnc2n1[C@H]1C[C@H](Nc2nc3ccc(Cl)cc3o2)C1 [Example 229, 1-(trans-3-((6-chlorobenzo[d]oxazol-2-yl)amino)cyclobutyl)-3-cyclopropyl-1H-imidazo[4,5-b]pyrazin-2(3H)-one]
244	CC1(C)C(=O)N([C@H]2C[C@H](Nc3ncc(F)cn3)C2)c2ncccc21 [Example 71, 1-(trans-3-((5-fluoropyrimidin-2-yl)amino)cyclobutyl)-3,3-dimethyl-1H-pyrrolo[2,3-b]pyridin-2(3H)-one]
167	CC1(C)C(=O)N([C@H]2C[C@H](Nc3nc(-c4ccccc4)cs3)C2)c2ncccc21 [Example 69, 3,3-Dimethyl-1-(trans-3-((4-phenylthiazol-2-yl)amino)cyclobutyl)-1H-pyrrolo[2,3-b]pyridine-2(3H)-one]
0.67	c1cnc2sc(N[C@H]3C[C@H](n4c(C5CC5)nc5cccnc54)C3)nc2c1 [Example 4, N-(trans-3-(2-cyclopropyl-3H-imidazo[4,5-b]pyridin-3-yl)cyclobutyl)thiazolo[5,4-b]pyridin-2-amine]
2.22	O=c1n(C2CC2)c2nccnc2n1[C@H]1C[C@H](Nc2nc3cccnc3s2)C1 [Example 178, 1-cyclopropyl-3-(trans-3-(thiazolo[5,4-b]pyridin-2-ylamino)cyclobutyl)-1H-imidazo[4,5-b]pyrazin-2(3 H)-one]
0.459	CC1(C)C(=O)N([C@H]2C[C@H](Nc3ccc4ncccc4n3)C2)c2nccnc21 [Example 163, 5-(trans-3-((1,5-naphthyridin-2-yl)amino)cyclobutyl)-7,7-dimethyl-5H-pyrrolo[2,3-b]pyrazin-6(7 H)-one]
2.84	COc1nc2cccnc2n1C1CN(c2nccc(-c3ccc(C)nc3)n2)C1 [Example 130, 2-Methoxy-3-(1-(4-(6-methylpyridin-3-yl)pyrimidin-2-yl)azetidin-3-yl)-3H-imidazo[4,5-b]pyridine]
2.35	O=c1n(C2CC2)c2nccnc2n1[C@H]1C[C@H](Nc2nc3ccccc3o2)C1 [Example 220, 1-(trans-3-(benzo[d]oxazol-2-ylamino)cyclobutyl)-3-cyclopropyl-1H-imidazo[4,5-b]pyrazin-2(3H)-one]
1120	CC1(C)C(=O)N([C@H]2C[C@H](Nc3ncc4ccccc4n3)C2)c2ncccc21 [Example 166, 3,3-dimethyl-1-(trans-3-(quinazolin-2-ylamino)cyclobutyl)-1H-pyrrolo[2,3-b]pyridin-2(38)-one]
77.9	COc1nc2cccnc2n1[C@H]1C[C@H](Nc2ncc3ccc(Cl)cc3n2)C1 [Example 28, 7-Chloro-N-(trans-3-(2-methoxy-3H-imidazo[4,5-b]pyridin-3-yl)cyclobutyl)quinazolin-2-amine]
1.57	CC(=O)c1ccc(N[C@H]2C[C@H](N3C(=O)C(C)(C)c4cccnc43)C2)nc1 [Example 43, 1-(trans-3-((5-acetylpyridin-2-yl)amino)cyclobutyl)-3,3-dimethyl-1H-pyrrolo[2,3-b]pyridin-2(3H)-one]
178	c1ccc2nc(N[C@H]3C[C@H](n4cnc5cccnc54)C3)ncc2c1 [Example 22, N-(Trans-3-(3H-imidazo[4,5-b]pyridin-3-yl)cyclobutyl)quinazolin-2-amine]
1.69	O=C(c1nc2ccccc2s1)N1CC(N2C(=O)C3(CC3)c3cccnc32)C1 [Example 118, 1′-(1-(benzo[d]thiazole-2-carbonyl)azetidin-3-yl)spiro[cyclopropane-1,3′-pyrrolo[2,3-b]pyridin-]-2′(1′H)-one]
31.5	O=c1n(C2CC2)c2nc(Br)cnc2n1[C@H]1C[C@H](Nc2ncc3ccc(F)cc3n2)C1 [Example 231, 5-bromo-3-cyclopropyl-1-(trans-3-((7-fluoroquinazolin-2-yl)amino)cyclobutyl)-1H-imidazo[4,5-b]pyrazin-2(3H)-one]
2.36	CC1(C)C(=O)N(C2CCN(c3nc4ccccc4s3)CC2)c2nccnc21 [Example 198, 5-(1-(benzo[d]thiazol-2-yl)piperidin-4-yl)-7,7-dimethyl-5H-pyrrolo[2,3-b]pyrazin-6(7H)-one]
28.4	Clc1ccc2ncc(N[C@H]3C[C@H](n4c(C5CCOCC5)nc5cccnc54)C3)nc2c1 [Example 17, 7-Chloro-N-(trans-3-(2-(tetrahydro-2H-pyran-4-yl)-3H-imidazo[4,5-b]pyridin-3-yl)cyclobutyl)quinoxalin-2-amine]
0.947	Cn1c(=O)n([C@H]2C[C@H](Nc3nc4cc(F)ccc4s3)C2)c2ncccc21 [Example 143, 3-(trans-3-((5-fluorobenzo[d]thiazol-2-yl)amino)cyclobutyl)-1-methyl-1H-imidazo[4,5-b]pyridin-2(3H)-one]
